From publication PMC10609013, “Solubility and Thermodynamic Analysis of Isotretinoin in Different (DMSO + Water) Mixtures” (Molecules, 2023)
Values joined by “and” are separate entries in the source; they are usually repeats but may differ in a detail not shown here. Equal entries are not always repeated.

Experiments:
Format in all cases: physicochemical
[1] = Shake flask solubility of ITN in {DMSO (1) + H2O (2)} mixes, HPLC; settings: 101.1 kPa
Method: A series of {DMSO (1) + H2O (2)} solutions, with DMSO mass percentages ranging from 0.10 to 0.90, was examined. Three replicates of each {DMSO (1) + H2O (2)} combination were taken. ITN’s mole fraction solubility versus mass fraction of DMSO (m = 0.0–1.0) and neat DMSO and H2O was measured using a shake flask approach at 298.2–318.2 K and 101.1 kPa. In essence, the known amounts of each {DMSO (1) + H2O (2)} combination and neat DMSO and H2O were combined with extra ITN crystals in triplicate. The equilibrium was achieved by saturating the resultant mixes in a WiseBath® WSB shaking water bath (Model WSB-18/30/-45, Daihan Scientific Co. Ltd., Seoul, Korea) at a shaking speed of 100 rpm for 72 h. In order to evaluate the equilibrium time, the preliminary experiments were performed at different time intervals. […] The saturated solutions were again removed from the shaker after they had reached equilibrium and centrifuged for 30 min at 5000 rpm. A previously established environmentally friendly HPLC method was used to assess the ITN content after the supernatants were isolated and diluted (as required). The identification of ITN was carried out via a Nucleodur (dimensions: 150 mm × 4.6 mm and particle size: 5 μm) reversed-phase C18 analytical column at 298.2 K. The environmentally friendly mobile used was a binary mixture of ethyl acetate and ethanol (50:50% v v^−1). The mobile phase was delivered with a flow speed of 1 mL min^−1. The ITN measurements were performed at a wavelength of 354 nm. The sample volume was 20 μL, which was injected using a Waters autosampler. The Analytical GREEnness (AGREE) score was determined to evaluate the eco-friendliness nature of the HPLC method. The AGREE score was predicted to be 0.76 for the present HPLC method, indicating the eco-friendly nature of the HPLC method. ITN mole fraction solubilities (xe) were calculated using their standard formulae described in our previous work.

[2] = Apparent thermodynamic analysis of ITN dissolution (van't Hoff and Gibbs equations)
Method: At the mean harmonic temperature (Thm), all apparent thermodynamic parameters for ITN were determined. The Thm was determined using the reported equation [51, 56]. […] The “van’t Hoff and Gibbs equations” were used to calculate these parameters. The ΔsolH^0 values for ITN (3) in various {DMSO (1) + H2O (2)} mixtures were calculated using Equation (10) and Thm = 308 K [47, 62]:(10) ∂lnxe/∂1/T−1/ThmP=−∆solH^0/R
The “ΔsolH^0” for ITN was derived using the graphed “van’t Hoff” plots between the ln xe values of ITN and 1/T−1/Thm .
Additionally, at Thm = 308 K, the ΔsolG^0 for ITN (3) in binary {DMSO (1) + H2O (2)} mixes was calculated using the Krug et al. methodology via Equation (11):(11) ∆solG^0=−RThm×intercept where, the “van’t Hoff plots” shown in Figure 5 were used to determine the intercept values for ITN (3) in binary mixtures of DMSO (1) and H2O (2).
By Equation (12), the ΔsolS^0 for ITN (3) in numerous {DMSO (1) + H2O (2)} mixtures was derived:(12) ∆solS^0=∆solH^0−∆solG^0/Thm

[3] = Enthalpy-entropy compensation analysis; settings: all {DMSO (1) + H2O (2)} mixes, neat DMSO and H2O, Thm = 308 K
Source text: An enthalpy–entropy compensation analysis was used, as previously described, to evaluate the solvation behavior of ITN (3) in numerous mixes of {DMSO (1) + H2O (2)}. Weighted curves of ΔsolH° vs. ΔsolG° were generated at Thm = 308 K for this experiment.

[4] = DMSO mass fraction m = 0.0, Thm = 308 K
[5] = DMSO mass fraction m = 0.1, Thm = 308 K
[6] = DMSO mass fraction m = 0.2, Thm = 308 K
[7] = DMSO mass fraction m = 0.3, Thm = 308 K
[8] = DMSO mass fraction m = 0.4, Thm = 308 K
[9] = DMSO mass fraction m = 0.5, Thm = 308 K
[10] = DMSO mass fraction m = 0.6, Thm = 308 K
[11] = DMSO mass fraction m = 0.7, Thm = 308 K
[12] = DMSO mass fraction m = 0.8, Thm = 308 K
[13] = DMSO mass fraction m = 0.9, Thm = 308 K
[14] = DMSO mass fraction m = 1.0, Thm = 308 K

SMILES: CC1=C(/C=C/C(C)=C/C=C/C(C)=C\C(=O)O)C(C)(C)CCC1 [ITN, isotretinoin]
- xe experimental solubility ([1]; DMSO mass fraction m = 0.9, T = 298.2 K): 2.44 (0.02) × 10^−2 mole fraction
- xe experimental solubility ([1]; DMSO mass fraction m = 0.9, T = 303.2 K): 2.66 (0.03) × 10^−2 mole fraction
- xe experimental solubility ([1]; DMSO mass fraction m = 0.9, T = 308.2 K): 2.86 (0.03) × 10^−2 mole fraction
- xe experimental solubility ([1]; DMSO mass fraction m = 0.9, T = 313.2 K): 3.19 (0.04) × 10^−2 mole fraction
- xe experimental solubility ([1]; DMSO mass fraction m = 0.9, T = 318.2 K): 3.39 (0.05) × 10^−2 mole fraction
- xe experimental solubility ([1]; DMSO mass fraction m = 1.0, T = 298.2 K): 8.47 (0.10) × 10^−2 mole fraction
- xe experimental solubility ([1]; DMSO mass fraction m = 1.0, T = 303.2 K): 8.88 (0.11) × 10^−2 mole fraction
- xe experimental solubility ([1]; DMSO mass fraction m = 1.0, T = 308.2 K): 9.31 (0.12) × 10^−2 mole fraction
- xe experimental solubility ([1]; DMSO mass fraction m = 1.0, T = 313.2 K): 9.80 (0.13) × 10^−2 mole fraction
- xe experimental solubility ([1]; DMSO mass fraction m = 1.0, T = 318.2 K): 1.02 × 10^−1 mole fraction and 1.02 (0.01) × 10^−1 mole fraction
- ΔsolG^0 apparent standard Gibbs energy [2, 4]: 36.27 (0.43) kJ mol^−1
- ΔsolH^0 apparent standard enthalpy [2, 4]: 63.00 (0.76) kJ mol^−1
- ΔsolS^0 apparent standard entropy [2, 4]: 86.78 (1.12) J mol^−1 K^−1
- ΔsolG^0 apparent standard Gibbs energy [2, 5]: 33.20 (0.41) kJ mol^−1
- ΔsolH^0 apparent standard enthalpy [2, 5]: 57.15 (0.67) kJ mol^−1
- ΔsolS^0 apparent standard entropy [2, 5]: 77.75 (1.03) J mol^−1 K^−1
- ΔsolG^0 apparent standard Gibbs energy [2, 6]: 30.19 (0.39) kJ mol^−1
- ΔsolH^0 apparent standard enthalpy [2, 6]: 52.98 (0.63) kJ mol^−1
- ΔsolS^0 apparent standard entropy [2, 6]: 73.99 (1.00) J mol^−1 K^−1
- ΔsolG^0 apparent standard Gibbs energy [2, 7]: 27.15 (0.37) kJ mol^−1
- ΔsolH^0 apparent standard enthalpy [2, 7]: 46.19 (0.52) kJ mol^−1
- ΔsolS^0 apparent standard entropy [2, 7]: 61.83 (0.98) J mol^−1 K^−1
- ΔsolG^0 apparent standard Gibbs energy [2, 8]: 24.14 (0.36) kJ mol^−1
- ΔsolH^0 apparent standard enthalpy [2, 8]: 41.89 (0.48) kJ mol^−1
- ΔsolS^0 apparent standard entropy [2, 8]: 57.59 (0.92) J mol^−1 K^−1
- ΔsolG^0 apparent standard Gibbs energy [2, 9]: 21.13 (0.30) kJ mol^−1
- ΔsolH^0 apparent standard enthalpy [2, 9]: 35.40 (0.42) kJ mol^−1
- ΔsolS^0 apparent standard entropy [2, 9]: 46.31 (0.81) J mol^−1 K^−1
- ΔsolG^0 apparent standard Gibbs energy [2, 10]: 18.10 (0.26) kJ mol^−1
- ΔsolH^0 apparent standard enthalpy [2, 10]: 31.28 (0.40) kJ mol^−1
- ΔsolS^0 apparent standard entropy [2, 10]: 42.78 (0.74) J mol^−1 K^−1
- ΔsolG^0 apparent standard Gibbs energy [2, 11]: 15.10 (0.24) kJ mol^−1
- ΔsolH^0 apparent standard enthalpy [2, 11]: 23.95 (0.32) kJ mol^−1
- ΔsolS^0 apparent standard entropy [2, 11]: 28.74 (0.56) J mol^−1 K^−1
- ΔsolG^0 apparent standard Gibbs energy [2, 12]: 12.07 (0.20) kJ mol^−1
- ΔsolH^0 apparent standard enthalpy [2, 12]: 20.05 (0.28) kJ mol^−1
- ΔsolS^0 apparent standard entropy [2, 12]: 25.90 (0.48) J mol^−1 K^−1
- ΔsolG^0 apparent standard Gibbs energy [2, 13]: 9.078 (0.14) kJ mol^−1
- ΔsolH^0 apparent standard enthalpy [2, 13]: 13.35 (0.22) kJ mol^−1
- ΔsolS^0 apparent standard entropy [2, 13]: 13.87 (0.23) J mol^−1 K^−1
- ΔsolG^0 apparent standard Gibbs energy [2, 14]: 6.077 (0.09) kJ mol^−1
- ΔsolH^0 apparent standard enthalpy [2, 14]: 7.430 (0.10) kJ mol^−1
- ΔsolS^0 apparent standard entropy [2, 14]: 4.392 (0.10) J mol^−1 K^−1
- nature of dissolution ([2]; all {DMSO (1) + H2O (2)} mixes, including neat DMSO and H2O): endothermic and entropy-driven
- solvation driven mechanism [3]: enthalpy-driven
